Results on one compound are retold here after patent US8993752B2, “Neprilysin inhibitors” (Theravance Biopharma R&D IP, LLC, priority 2011, dated 2015).

The experiment has as its target T1, human NEP (Homo sapiens, UniProt P08473).
T1 construct: purchased R&D Systems, Minneapolis, Minn; 1182-ZN
The experiment is described as follows: In vitro enzyme inhibition assay at human NEP (fluorogenic peptide substrate). The experiment is classed as biochemical. As to conditions: recombinant human NEP; substrate Mca-D-Arg-Arg-Leu-Dap-(Dnp)-OH 10 μM; 37° C.; values given as ranges; read-out: pKi values at human NEP (converted). The method, boiled down:
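Recombinant human NEP pre-incubated 30 min at 37 °C with compound (10 μM to 20 pM), then 10 μM Mca-D-Arg-Arg-Leu-Dap-(Dnp)-OH in 50 mM HEPES pH 7.5, 100 mM NaCl, 0.01% Tween-20, 10 μM ZnSO4. Stopped after 20 min with acetic acid, fluorescence read at 320/405 nm; Ki from nonlinear fit, reported as pKi.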

T1 sequence (P08473 whole entry): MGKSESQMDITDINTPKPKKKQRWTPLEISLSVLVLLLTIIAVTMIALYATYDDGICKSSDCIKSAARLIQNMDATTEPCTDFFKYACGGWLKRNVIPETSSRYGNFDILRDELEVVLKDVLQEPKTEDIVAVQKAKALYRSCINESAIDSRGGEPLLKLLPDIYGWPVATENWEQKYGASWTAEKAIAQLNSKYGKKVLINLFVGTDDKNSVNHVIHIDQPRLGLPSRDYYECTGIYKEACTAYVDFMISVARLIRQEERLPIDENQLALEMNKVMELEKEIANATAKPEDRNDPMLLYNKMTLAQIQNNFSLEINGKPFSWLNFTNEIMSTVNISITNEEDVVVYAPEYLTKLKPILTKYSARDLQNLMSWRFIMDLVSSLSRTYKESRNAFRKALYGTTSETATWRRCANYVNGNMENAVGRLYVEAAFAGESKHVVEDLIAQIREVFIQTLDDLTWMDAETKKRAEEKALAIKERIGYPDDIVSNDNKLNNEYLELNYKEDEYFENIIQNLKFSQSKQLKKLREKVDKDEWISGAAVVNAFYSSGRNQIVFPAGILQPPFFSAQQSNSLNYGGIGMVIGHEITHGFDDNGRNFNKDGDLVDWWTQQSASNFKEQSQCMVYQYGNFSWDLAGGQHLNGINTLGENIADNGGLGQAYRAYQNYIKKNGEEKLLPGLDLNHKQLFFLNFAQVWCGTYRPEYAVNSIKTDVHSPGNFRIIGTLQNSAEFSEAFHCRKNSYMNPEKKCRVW

In the case of `Cc1ccccc1C[C@H](CC(=O)O)NC(=O)c1cc(C(=O)O)[nH]n1` [Example 13, 5-((R)-1-Carboxymethyl-2-o-tolyl-ethylcarbamoyl)-2H-pyrazole-3-carboxylic Acid], the Ki is 12.6 to 100 nM.
